Experimental data as given in ChEMBL document CHEMBL4017471, “Discovery of novel aminobenzisoxazole derivatives as orally available factor IXa inhibitors” (Bioorg Med Chem Lett, 2017).
pIC50: −log10 of the molar value. The source made the active and inactive calls. The rule behind the calls is not given here.

Assays:
Coagulation factor X = Coagulation factor X (Homo sapiens, UniProt P00742)
Description: Inhibition of human coagulation factor 10a

Coagulation factor IX = Coagulation factor IX (Homo sapiens, UniProt P00740)
[1] = Apparent permeability of the compound at 5 uM after 5 hrs by PAMPA; assay type: physicochemical
[2] = Cmax in rat at 1 mg/kg, po administered as cassette dose; assay type: ADME, organism-based; set-up: dose 1 mg/kg, route oral; settings: in vivo
[3] = Unbound plasma concentration in human at 10 uM measured after 4 hrs by equilibrium dialysis method; assay type: ADME, cell-free
Plasma = assay: Anticoagulant activity in human plasma assessed as concentration required to double activated partial thromboplastin time; assay type: functional
Rattus norvegicus [4] = assay: Anticoagulant activity in po dosed rat assessed as prolongation of activated partial thromboplastin time measured after 2 hrs; assay type: functional, organism-based
Rattus norvegicus [5] = assay: Effect on prothrombin time in rat at 1 to 100 mg/kg, po measured after 2 hrs; assay type: functional, organism-based

Coagulation factor X, sequence (P00742 41-179 limits assumed): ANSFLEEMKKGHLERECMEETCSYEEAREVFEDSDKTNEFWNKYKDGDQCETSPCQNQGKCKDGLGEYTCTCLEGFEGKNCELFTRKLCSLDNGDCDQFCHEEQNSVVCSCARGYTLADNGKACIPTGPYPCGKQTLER
Coagulation factor X, sequence (P00742 235-488 limits assumed): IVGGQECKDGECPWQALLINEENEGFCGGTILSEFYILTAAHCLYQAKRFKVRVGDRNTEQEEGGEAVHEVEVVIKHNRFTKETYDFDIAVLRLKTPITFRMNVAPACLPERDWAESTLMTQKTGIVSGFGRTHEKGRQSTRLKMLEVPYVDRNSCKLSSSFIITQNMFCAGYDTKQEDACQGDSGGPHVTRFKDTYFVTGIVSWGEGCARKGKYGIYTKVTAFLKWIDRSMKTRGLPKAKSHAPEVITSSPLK
Coagulation factor IX, sequence (P00740 47-191 limits assumed): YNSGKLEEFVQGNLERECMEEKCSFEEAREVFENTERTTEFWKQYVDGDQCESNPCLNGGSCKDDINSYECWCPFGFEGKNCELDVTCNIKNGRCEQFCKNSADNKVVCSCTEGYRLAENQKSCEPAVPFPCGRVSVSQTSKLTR
Coagulation factor IX, sequence (P00740 227-461 limits assumed): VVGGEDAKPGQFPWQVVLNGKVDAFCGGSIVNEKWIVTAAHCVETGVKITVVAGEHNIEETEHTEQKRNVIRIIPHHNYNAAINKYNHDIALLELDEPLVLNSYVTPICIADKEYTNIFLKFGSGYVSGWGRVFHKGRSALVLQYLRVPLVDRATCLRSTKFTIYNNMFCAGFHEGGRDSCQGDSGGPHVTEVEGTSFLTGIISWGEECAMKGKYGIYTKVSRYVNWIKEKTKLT

Row | Compound | pIC50 (Coagulation factor X) | pIC50 (Coagulation factor IX) | Papp at 5 h, 5 µM [1] [×10⁻⁶ cm/s] | Cmax [2] [ng/mL] | fraction unbound at 4 h, 10 µM [3] | 2aPTT (Plasma) [µM] | Activity (Rattus norvegicus [4]) | Activity (Rattus norvegicus [5])
1 | Cc1cc(N2CCC(NC(=O)c3ccc(-n4cnnc4)cc3Cl)C2)c2onc(N)c2c1 (racemic) | < 4.00 | 7.30 | – | – | – | – | – | –
2 | Cn1ncn(-c2ccc(C(=O)N[C@@H]3CCN(c4ncc(Cl)c5c(N)noc45)C3)c(Cl)c2)c1=O | < 4.00 | 7.82 | 10.3 | 390 | 0.016 | 13 | – | –
3 | Nc1noc2c(N3CCC(NC(=O)c4ccc(-n5cnnc5)cc4Cl)C3)cc(Cl)cc12 (racemic) | < 4.00 | 7.74 | – | – | – | – | – | –
4 | Nc1noc2c(N3CC[C@@H](NC(=O)c4ccc(-n5cnnc5)cc4Cl)C3)cc(Cl)c(Cl)c12 | 4.54 | 7.33 | – | – | – | – | – | –
5 | Nc1noc2c(N3CCC(NC(=O)c4ccc(-n5cnnc5)cc4Cl)C3)cccc12 (racemic) | < 4.00 | 7.01 | – | – | – | – | – | –
6 | O=C(NC[C@H]1CN(c2ccc(N3CCOCC3=O)cc2)C(=O)O1)c1ccc(Cl)s1 | – | – | – | – | – | – | Active | Active
7 | Nc1noc2c(N3CC[C@@H](NC(=O)c4ccc(-c5ncccn5)cc4Cl)C3)ncc(Cl)c12 | < 4.00 | < 5.52 | – | – | – | – | – | –
8 | Nc1noc2c(N3CC[C@@H](NC(=O)c4ccc(-n5cnc6ccccc65)cc4Cl)C3)ncc(Cl)c12 | < 4.00 | 7.49 | 3.3 | 110 | 0.001 | 72 | – | –
9 | Cn1cc(-c2ccc(C(=O)N[C@@H]3CCN(c4ncc(Cl)c5c(N)noc45)C3)c(Cl)c2)cnc1=O | 4.59 | 7.44 | 0.7 | – | 0.017 | 47 | – | –
10 | Nc1noc2c(N3CC[C@@H](NC(=O)c4ccc(-n5cnnc5)cc4Cl)C3)ccc(Cl)c12 | < 4.52 | 7.49 | – | – | – | – | – | –
11 | Nc1noc2c(N3CC[C@@H](NC(=O)c4ccc(-n5cnc6ncccc65)cc4Cl)C3)ncc(Cl)c12 | 4.60 | 7.89 | 3.1 | – | 0.008 | 28 | – | –
12 | Cn1cc(-c2ccc(C(=O)N[C@@H]3CCN(c4ncc(Cl)c5c(N)noc45)C3)c(Cl)c2)ccc1=O | 4.70 | 7.74 | 6.5 | 510 | 0.004 | 85 | – | –
